The values below come from patent publication US20210205398A1, “COMPOSITIONS CONTAINING PHRAGMITIS RHIZOMA EXTRACT AS ACTIVE INGREDIENT FOR PREVENTION, AMELIORATION, OR TREATMENT OF A DISORDER CAUSED BY SIDE EFFECT OF ANTICANCER AGENT” (KOREA INSTITUTE OF ORIENTAL MEDICINE, priority 2016, published 2021).

For data set [1], the system named is animal model having docetaxel-induced bone marrow suppression. Kind of data set: Blood cell numbers in animal model having docetaxel-induced bone marrow suppression. The data set is classed as in vivo, C57BL/6 mice. The protocol:
In order to determine the influence of Phragmitis Rhizoma extract on blood parameters of an animal model having bone marrow suppression, bone marrow suppression was induced by intraperitoneal injection of docetaxel to a mouse. After that, a change brought by the Phragmitis Rhizoma extract was determined.
Specifically, C57BL/6 mice were categorized into 5 groups. Group 1 is a control, i.e., a group treated with saline containing 5% ethanol and 2% polysorbate 80. Group 2 is a docetaxel treatment group, i.e., a group with intraperitoneal injection (3 times) of 30 mg/kg docetaxel. Group 3 is a docetaxel and 30 mg/kg Phragmitis Rhizoma extract administration group, i.e., a group to which compulsory administration of 30 mg/kg Phragmitis Rhizoma extract was carried out, once a day starting from 2 days before the administration of docetaxel, and the compulsory administration of 30 mg/kg Phragmitis Rhizoma extract (once a day) was continued even for the 3 days of administering docetaxel. Group 4 is a docetaxel and 100 mg/kg Phragmitis Rhizoma extract administration group, i.e., a group to which administration was carried out in the same manner as above Group 3. Lastly, Group 5 is a docetaxel and 300 mg/kg Phragmitis Rhizoma extract administration group, i.e., a group to which administration was carried out in the same manner as Group 3.
Blood was taken from the animal and a change in the number of blood cells was determined.

Data set [2] relates to animal model having bone marrow suppression induced by docetaxel. The data set is described as follows: Alleviation of bone marrow suppression in animal model having bone marrow suppression induced by docetaxel. The format is in vivo, C57BL/6 mice. The protocol: After that, a change brought by the Phragmitis Rhizoma extract was determined.
Specifically, C57BL/6 mice were categorized into 4 groups. Group 1 is a control, i.e., a group treated with saline containing 5% ethanol and 2% polysorbate 80. Group 2 is a docetaxel treatment group, i.e., a group with intraperitoneal injection (3 times) of 30 mg/kg docetaxel. Group 3 is a docetaxel and 125 mg/kg Phragmitis Rhizoma extract administration group, i.e., a group to which compulsory administration of 125 mg/kg Phragmitis Rhizoma extract was carried out, once a day starting from 2 days before the administration of docetaxel, and the compulsory administration of 125 mg/kg Phragmitis Rhizoma extract (once a day) was continued even for the 3 days of administering docetaxel. Lastly, Group 4 is a docetaxel and 250 mg/kg Phragmitis Rhizoma extract administration group, i.e., a group to which administration of 250 mg/kg Phragmitis Rhizoma extract was carried out, in the same manner as above Group 3, once a day starting from 2 days before the administration of docetaxel, and the compulsory administration of 250 mg/kg Phragmitis Rhizoma extract (once a day) was continued even for the 3 days of administering docetaxel.
After that, a change in body weight of the mouse belonging to each of the control group, docetaxel administration group, combined administration group with docetaxel and 125 mg/kg Phragmitis Rhizoma extract, and combined administration group with docetaxel and 250 mg/kg Phragmitis Rhizoma extract was measured every day. On Day 6, the mouse was sacrificed and the weight of the spleen and thymus, which play an important role in determining cell number change in bone marrow and hematopoiesis, was measured.
Organ index (mg/g)=Weight of organ (mg)/Weight of animal (g)

Data set [3] deals with bone marrow cells from mouse femur. Kind of data set: Hematopoietic toxicity in mouse having intraperitoneal injection of anticancer agent (in vivo), bone marrow cell count. Further details: species or system C57BL/6 mouse. Conditions: docetaxel i.p. 50, 100, or 150 mg/kg; three days and seven days after injection; FIG. 2. Here is the method: A C57BL/6 mouse was subjected to intraperitoneal injection of docetaxel at 50, 100, or 150 mg/kg. Three days and seven days after the injection, bone marrow cells were isolated from the mouse femur and counted, and the survival rate was measured.

[4] abbreviates: docetaxel 30 mg/kg i.p. 3 times, alone, mean ± SEM, ten mice.
[5] abbreviates: docetaxel 30 mg/kg i.p. 3 times, alone, Day 6.

In data set [1] (setting [4]), `CC(=O)O[C@@]12CO[C@@H]1C[C@H](O)[C@@]1(C)C(=O)[C@H](O)C3=C(C)[C@@H](OC(=O)[C@H](O)[C@@H](NC(=O)OC(C)(C)C)c4ccccc4)C[C@@](O)([C@@H](OC(=O)c4ccccc4)[C@H]21)C3(C)C` [docetaxel] had a Lymphocytes of 1.56 ± 0.22, a Neutrophils of 0.30 ± 0.01, an RBCs of 7.72 ± 0.15 and a WBCs of 2.09 ± 0.19. The “number of blood cells (in words)” value in data set [1] (docetaxel administration group) is “a decrease in the number of the white blood cells, neutrophils, lymphocytes, and red blood cells”. The “number of bone marrow cells (bone marrow mononuclear cells)” value in data set [2] (docetaxel 30 mg/kg i.p. 3 times, alone, vs control, FIG. 5) was “decreased significantly”. Also, in data set [2] (setting [5]), the Spleen index is recorded as 2.366 ± 0.22 mg/g and the Thymus index is recorded as 0.911 ± 0.22 mg/g. Moreover, the body weight result in data set [2] (docetaxel 30 mg/kg i.p. 3 times, alone, FIG. 4) was “a significant decrease in body weight was induced”. Also, the “histopathological analysis of thymus” value in data set [2] (docetaxel administration, FIG. 7) is “organ shrinkage and loss of functional lymphoid organ”. Besides, the “organ index of spleen and thymus (in words)” value in data set [2] (docetaxel alone) is reported as “a decrease in organ index”. Besides, the “expression of IL-3 (mRNA, spleen tissue)” value in data set [2] (docetaxel alone, FIG. 8) is recorded as “largely decreased”. Further, in data set [2] (docetaxel only, FIG. 6), the “histological analysis of femur (H&E)” value is “a hypocellularity and an abnormality in cellular structure in bone marrow”. Moreover, in data set [3], the “number of isolated bone marrow cells” value is given as “a decrease in the number of the isolated bone marrow cells was observed in significant sense”.
